From PubChem BioAssay AID1963849 (Molecular Pharmacology Branch, DTP, NCI, 2024)
pIC50: −log10 of the molar value.

Tested on: 299254-011-R-J1-PDC complex spheroid viability
Experiment: Anticancer human tumor 299254-011-R-J1-PDC patient-derived melanoma cell line growth inhibition [POLQ]
Settings: for pIC50: curve of first compound; for viability, T/C: stronger effect = lower value
Procedure, shortened: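 Growth inhibition in 3D: complex spheroids (tumor PDC, HUVEC, MSC) treated with POLQ inhibitor combinations; where Cmax unknown, highest tested concentration 10 microM, except SN-38 at 1 microM.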

[1] = second compound 0.0316 µM, first compound 0.0316 µM
[2] = second compound 0.0316 µM, first compound 0.1 µM
[3] = second compound 0.0316 µM, first compound 0.316 µM
[4] = second compound 0.0316 µM, first compound 1 µM
[5] = second compound 0.0316 µM, first compound 3.16 µM
[6] = second compound 0.0316 µM, first compound 10 µM
[7] = second compound 0.1 µM, first compound 0.0316 µM
[8] = second compound 0.1 µM, first compound 0.1 µM
[9] = second compound 0.1 µM, first compound 0.316 µM
[10] = second compound 0.1 µM, first compound 1 µM
[11] = second compound 0.1 µM, first compound 3.16 µM
[12] = second compound 0.1 µM, first compound 10 µM
[13] = second compound 0.316 µM, first compound 0.0316 µM
[14] = second compound 0.316 µM, first compound 0.1 µM
[15] = second compound 0.316 µM, first compound 0.316 µM
[16] = second compound 0.316 µM, first compound 1 µM
[17] = second compound 0.316 µM, first compound 3.16 µM
[18] = second compound 0.316 µM, first compound 10 µM
[19] = second compound 1 µM, first compound 0.0316 µM
[20] = second compound 1 µM, first compound 0.1 µM
[21] = second compound 1 µM, first compound 0.316 µM
[22] = second compound 1 µM, first compound 1 µM
[23] = second compound 1 µM, first compound 3.16 µM
[24] = second compound 1 µM, first compound 10 µM
[25] = second compound 3.16 µM, first compound 0.0316 µM
[26] = second compound 3.16 µM, first compound 0.1 µM
[27] = second compound 3.16 µM, first compound 0.316 µM
[28] = second compound 3.16 µM, first compound 1 µM
[29] = second compound 3.16 µM, first compound 3.16 µM
[30] = second compound 3.16 µM, first compound 10 µM
[31] = second compound 10 µM, first compound 0.0316 µM
[32] = second compound 10 µM, first compound 0.1 µM
[33] = second compound 10 µM, first compound 0.316 µM
[34] = second compound 10 µM, first compound 1 µM
[35] = second compound 10 µM, first compound 3.16 µM
[36] = second compound 10 µM, first compound 10 µM
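Also: spheroids exposed to drugs for one week before measurement.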
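For viability, T/C in this document: percent viability relative to DMSO vehicle control taken as 100%.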

`Nc1ccn(C2OC(CO)C(O)C2(F)F)c(=O)n1` (centres undefined) + COC1C(OC(N)=O)C(O)C(Oc2ccc3c(O)c(NC(=O)c4ccc(O)c(CC=C(C)C)c4)c(=O)oc3c2C)OC1(C)C showed a pIC50 (second compound 0.0316 µM) of 7.09, a pIC50 (second compound 0.1 µM) of 7.12 and a pIC50 (second compound 0.316 µM) of 7.20. For the same compound, the pIC50 (second compound 1 µM) was 7.10, the pIC50 (second compound 3.16 µM) was over 7.50 and the pIC50 (second compound 10 µM) was 7.18. The viability, T/C [1] was 62.8%, the viability, T/C [2] was 44.3% and the viability, T/C [3] was 41.2%. For the same compound, the viability, T/C [4] was 35.1%, the viability, T/C [5] was 46.8% and the viability, T/C [6] was 44.4%. It also gave a viability, T/C [7] of 60.1%, a viability, T/C [8] of 40.6% and a viability, T/C [9] of 52.4%. It also gave a viability, T/C [10] of 37.7%, a viability, T/C [11] of 35.6% and a viability, T/C [12] of 39.2%. For the same compound, the viability, T/C [13] was 64.7%, the viability, T/C [14] was 40.6% and the viability, T/C [15] was 36.6%. For the same compound, the viability, T/C [16] was 30.9%, the viability, T/C [17] was 44.7% and the viability, T/C [18] was 41.2%. For the same compound, the viability, T/C [19] was 71.6%, the viability, T/C [20] was 44.4% and the viability, T/C [21] was 46.6%. The viability, T/C [22] was 33.8%, the viability, T/C [23] was 48.9% and the viability, T/C [24] was 45.5%. The viability, T/C [25] was 57%, the viability, T/C [26] was 38.8% and the viability, T/C [27] was 35%. For the same compound, the viability, T/C [28] was 39.6%, the viability, T/C [29] was 31.3% and the viability, T/C [30] was 42.4%. For the same compound, the viability, T/C [31] was 61%, the viability, T/C [32] was 44.1% and the viability, T/C [33] was 39.1%. The viability, T/C [34] was 39.3%, the viability, T/C [35] was 48.9% and the viability, T/C [36] was 31.4%.

Compound `CC(C)n1c(=O)n(C)c2cnc3cc(F)c(-c4ccc(OCCCN5CCCCC5)nc4)cc3c21` + Nc1ccc(C#CCN(C(=O)Cc2ncc(C(F)(F)F)cc2C(F)(F)F)c2ccc(F)cc2)nn1 has a pIC50 (second compound 0.0316 µM) of under 5.00, a pIC50 (second compound 0.1 µM) of under 5.00 and a pIC50 (second compound 0.316 µM) of under 5.00. The pIC50 (second compound 1 µM) was under 5.00, the pIC50 (second compound 3.16 µM) was under 5.00 and the pIC50 (second compound 10 µM) was under 5.00. For the same compound, the viability, T/C [1] was 112%, the viability, T/C [2] was 105% and the viability, T/C [3] was 105%. The viability, T/C [4] was 111%, the viability, T/C [5] was 109% and the viability, T/C [6] was 72.9%. The viability, T/C [7] was 105%, the viability, T/C [8] was 102% and the viability, T/C [9] was 121%. For the same compound, the viability, T/C [10] was 105%, the viability, T/C [11] was 102% and the viability, T/C [12] was 78.7%. For the same compound, the viability, T/C [13] was 126%, the viability, T/C [14] was 123% and the viability, T/C [15] was 89.7%. The viability, T/C [16] was 108%, the viability, T/C [17] was 97.3% and the viability, T/C [18] was 84.5%. For the same compound, the viability, T/C [19] was 105%, the viability, T/C [20] was 102% and the viability, T/C [21] was 91.8%. It also gave a viability, T/C [22] of 105%, a viability, T/C [23] of 93.1% and a viability, T/C [24] of 79.7%. The viability, T/C [25] was 115%, the viability, T/C [26] was 109% and the viability, T/C [27] was 113%. It also gave a viability, T/C [28] of 116%, a viability, T/C [29] of 96.7% and a viability, T/C [30] of 78.3%. The viability, T/C [31] was 93.5%, the viability, T/C [32] was 81.5% and the viability, T/C [33] was 98.1%. The viability, T/C [34] was 86.6%, the viability, T/C [35] was 79.5% and the viability, T/C [36] was 71.5%.
